From patent publication US20110039762A1, “TARGETED ANTIMICROBIAL MOIETIES” (C3 JIAN, INC., priority 2009, published 2011)
Entries after “also recorded” stand apart in the source; their conditions may differ.

test system: microorganisms (e.g., bacteria, yeasts, fungi); assay: Targeting peptide binding to target microorganisms (Table 3); details: microorganism the targeting peptide binds; binding in aqueous buffers varied by peptide solubility, preferably 1x PBS

Substance | Target(s)
1T-256 (KGKSLMPLLKQINQWGKLYL; Peptide with targeting and/or antimicrobial activity) [Peptide 1T-256] | S. sanguinis
1T-34 (AFWLNILLTLLGYIPGIVHAVYIIAKR; Peptide with targeting and/or antimicrobial activity) [Peptide 1T-34] | S. aureus; also recorded: S. epidermidis; also recorded: C. jeikeium; also recorded: C. xerosis; also recorded: C. striatum; also recorded: P. aeruginosa
1T-289 (EPSADIYLSAKDTKT; Peptide with targeting and/or antimicrobial activity) [Peptide 1T-289] | F. nucleatum; also recorded: P. gingivalis; also recorded: S. gordonii; also recorded: S. mitis; also recorded: S. mutans; also recorded: S. oralis; also recorded: S. sanguinis
1T-53 (SDILAEMFEKGELQTLVKDAAAKANA; Peptide with targeting and/or antimicrobial activity) [Peptide 1T-53] | P. aeruginosa
1T-301 (SKLPRVLDASLKL; Peptide with targeting and/or antimicrobial activity) [Peptide 1T-301] | F. nucleatum; also recorded: S. gordonii; also recorded: S. sanguinis
1T-110 (LAAKTAVCVGRAFM; Peptide with targeting and/or antimicrobial activity) [Peptide 1T-110] | A. naeslundii; also recorded: P. gingivalis; also recorded: S. epidermidis; also recorded: S. gordonii; also recorded: S. mitis; also recorded: S. mutans; also recorded: S. oralis; also recorded: S. sanguinis
1T-10 (SPAGLPGDGDEA; Peptide with targeting and/or antimicrobial activity) [Peptide 1T-10] | M. xanthus
1T-107 (SPVPRFTAVGGVSRGSP; Peptide with targeting and/or antimicrobial activity) [Peptide 1T-107] | A. naeslundii; also recorded: S. epidermidis; also recorded: S. gordonii; also recorded: S. mitis; also recorded: S. mutans; also recorded: S. oralis; also recorded: S. salivarious; also recorded: S. sanguinis

same assay, conditions: microorganism(s) the targeting peptide binds; binding in aqueous buffers depending on peptide solubility, preferably 1x PBS

Substance | Target(s)
PF-299 (LATKLKYEKEHKKM; Peptide with targeting and/or antimicrobial activity) | B. subtilis
PF-147 (RRPRRRRSGHGQSASAA; Peptide with targeting and/or antimicrobial activity) | S. epidermidis and M. luteus and MRSA
PF-288 (IYQLLNIEYSEDD; Peptide with targeting and/or antimicrobial activity) | S. mutans; also recorded: E. coli
PF-268 (EVLLSDLRPDIFSET; Peptide with targeting and/or antimicrobial activity) | S. mutans

same assay, conditions: microorganism(s) the targeting peptide binds; peptide binding conducted in aqueous buffers varied by peptide solubility, preferably 1x PBS

Substance | Target(s)
PF-483 (EDNKDKKDKKDK; Peptide with targeting and/or antimicrobial activity) | P. mirabilis; also recorded: C. jeikeium; also recorded: C. jejuni
PF-505 (GYTKDPGTGI; Peptide with targeting and/or antimicrobial activity) | S. mutans
PF-509 (EAKVQAKGEQIACNNY; Peptide with targeting and/or antimicrobial activity) | S. mutans; also recorded: B. subtilis; also recorded: E. coli

same assay, conditions: peptide binding in aqueous buffers varied by peptide solubility; preferably 1x PBS

Substance | Target(s) (microorganisms bound by the targeting peptide)
PF-C003 (FCSVDHDVITIAADHVKQGAEA; Peptide with targeting and/or antimicrobial activity) | A. naeslundii; also recorded: P. gingivalis; also recorded: S. mutans
PF-787 (MTERQRRALLKQHPEVVSWSDYLEKRKRRTGTAG; Peptide with targeting and/or antimicrobial activity) | Mycobacteria spp.
PF-C160 (AASGFTYCASNGVWHPY; Peptide with targeting and/or antimicrobial activity) | F. nucleatum
PF-676 (AEYRGL; Peptide with targeting and/or antimicrobial activity) | S. mutans; also recorded: E. coli
